Experimental data taken from patent publication US6902881B2, “Compounds and methods for regulating cell differentiation” (priority 2000, dated 2005).

Legend:
[1] = system: Liposarcoma cells; test: Cellular triacyl glycerol (TAG) content, liposarcoma; type: cell-based, human; details: insulin 5 μg/ml, pituitary extract 20 μg/ml, biliverdin 4 × 10^−7 M where present
Experimental: Expression of differentiation markers. Carcinoembryogenic antigen in cell supernatants collected each three days was assayed by standard ELISA determinations using an IMX assay for quantitative measurement of the antigen. Cellular triacyl glycerol content was measured spectrophotometrically by enzymatic hydrolysis and analysis of the amount of glycerol released using a standard assay, Triglyceride (INT) 10 (Sigma Diagnostics). Cellular alkaline phosphatase activity was determined by measuring the fluorescence change induced by the hydrolysis of 4-methylumbelliferylphosphate. The fluorescence is detected at 450 nm with an excitation of 365 nm, using a Jobin Ivon-Spex Fluoro Max-2 fluorimeter. The alkaline phosphatase activity detected was expressed in units of μmol/mg protein/min.
Liposarcoma cells also accumulate triacyl glycerol in response to biliverdin. The extent of the accumulation is determined by the composition of the incubation media. Triacyl glycerol is induced in liposarcoma cells by insulin alone. The amount increases when bovine pituitary extract is added with the insulin. The highest production is achieved, however, when biliverdin is combined with insulin plus bovine pituitary extract.

[2] = system: Normal Fibroblast (3T3-L1 fibroblasts); test: Cellular triacyl glycerol (TAG) content, normal fibroblast; type: cell-based
Experimental: Expression of differentiation markers. Carcinoembryogenic antigen in cell supernatants collected each three days was assayed by standard ELISA determinations using an IMX assay for quantitative measurement of the antigen. Cellular triacyl glycerol content was measured spectrophotometrically by enzymatic hydrolysis and analysis of the amount of glycerol released using a standard assay, Triglyceride (INT) 10 (Sigma Diagnostics). […] The fluorescence is detected at 450 nm with an excitation of 365 nm, using a Jobin Ivon-Spex Fluoro Max-2 fluorimeter. The alkaline phosphatase activity detected was expressed in units of μmol/mg protein/min. These compounds also affect the timing for the fat accumulation. After 9 days of incubation with insulin and bovine pituitary extract, but without biliverdin, the fat droplets in the cells are small and scattered diffusely throughout the cell. These globules continue to enlarge to fill most of the cytoplasmic space by day 14. In contrast, by day 7 the cells incubated in the presence of biliverdin already contain large, grouped and prominent droplets. While the triacyl glycerol content increases in both HT 29 and liposarcoma cells, the fat droplets in HT 29 cells are smaller than those that fill the cytoplasm of the liposarcoma cells. 3T3-L1 fibroblasts differentiate into adipocytes in the presence of insulin (Table VII). In the absence of biliverdin, this hormone increases the triacylglycerol content of 3T3-L1 fibroblasts by 3-fold relative to control. When biliverdin is added, a progressively greater content of triacyl glycerol is achieved at day 9. The increase is dependent on the biliverdin concentration. At the highest concentration used, 4×10^−7 M, there is a 5.8-fold increase of triacyl glycerol content over that of the undifferentiated fibroblasts (Table VII). This almost doubles the amount in the cells incubated with differentiation medium alone and is nearly as high as observed with troglitazone. At a lower biliverdin concentration, 10^−8 M, there is a 3.5-fold increase compared to control values. Remarkably, the amounts of biliverdin required to achieve the effects on proliferation, cell cycle and differentiation marker up-regulation, i.e. 10^−7-10^−06 M, are the same as those needed to re-establish the capacity of embryos depleted of the tetrapyrrole by treatment with UV-light to form a dorsal axis.

[3] = system: UV-irradiated Xenopus laevis stage 1 embryos; test: Rescue of dorsal axis formation in UV-irradiated embryos, scored by dorsal anterior index (DAI); type: in vivo
Experimental: (§1) Several hundred spawned eggs were fertilized in vitro and incubated at 16 to 18° C. […] The vegetal surfaces of some of these embryos were irradiated with one or the other sources of UV light within 10 min of fertilization for 20-30 min. […] The embryos were not disturbed, touched or tipped from the moment of fertilization, during UV irradiation or for the duration of development. […] A score of 5 defines a normal dorsal axis, 4 a microcephalic, 3 a cyclopic, 2 an anoptic, 1 an acephalic and 0 an adorsal embryo.
The biological activities of biliverdin and its derivatives were tested by adding each of them to the incubation solution of embryos after the termination of the UV light exposure to either 254 or 366 nm UV light and at selected time periods between T ƒfm=0.4-2.5. Final concentrations of biliverdin ranged from 0.05 to 5 μM in less than 1% ethanol. […] An extinction coefficient of 51,000 was utilized to calculate their concentrations. All petri dishes were covered with aluminum foil to avoid light exposure. The extent of dorsal axis formation was analyzed by the morphological criteria described above.
(§2) Stage 1 embryos were exposed to UV-light source emitting at 366 nm (Mineralight UVSL-58, Ultraviolet Products, Inc., San Gabriel, Calif.) as described and then incubated in the presence of pure candidate DCD or commercially available biliverdin (Sigma-Aldrich, St. Louis, Mo.) at final concentrations from 0.05 to 1.2 μM in less than 1% ethanol. The concentrations were calculated using a molar extinction coefficient of 51,000. One group of embryos was not exposed to UV light but was incubated in the presence of 0.5 μM of candidate DCD.

[4] = system: control fertilized oocytes unexposed to UV light; test: Development of control embryos unexposed to UV light incubated with the compounds (dysmorphogen test); details: control fertilized oocytes unexposed to UV light incubated with the compound
Experimental: as §1
The biological activities of biliverdin and its derivatives were tested by adding each of them to the incubation solution of embryos after the termination of the UV light exposure to either 254 or 366 nm UV light and at selected time periods between T ƒfm=0.4-2.5. Final concentrations of biliverdin ranged from 0.05 to 5 μM in less than 1% ethanol. […] The extent of dorsal axis formation was analyzed by the morphological criteria described above.
as §2, with “One group of embryos was not exposed to UV light but was incubated in the presence of 0.5 μM of candidate DCD.” left out

[5] = system: HT29 colon cancer cells; test: Cellular proliferation and viability of HT29 colon cancer cells; type: cell-based, human
Experimental: Cell Culture Conditions. Human HT 29 colon cancer cells were purchased from the American Type Culture Collection. Cells were maintained in Dulbecco's Modified Eagle's Medium (DME) supplemented with 5% heat-inactivated fetal bovine serum, 2 mM glutamine, and antibiotics (DME/5%). All cell lines were incubated in a humidified 5% CO2/air environment. They were maintained at 37° C. in 5% CO2 covered in aluminum foil to prevent exposure to the light. A total of 1×10^6 cells were incubated per flask and allowed to attach overnight. Media was changed every third day. Cell counts were performed on a Coulter Counter following detachment of cells by standard trypsinization procedures. […] The period of exposure was followed by incubation in the absence of biliverdine. Cell numbers were monitored until proliferation resumed. The production of CEA and alkaline phosphatase was measured as described below.
The HT29 colon cancer cells were incubated with different concentrations of biliverdine and their response studied to identify the concentration ranges required to elicit a biological and/or a toxicological response (Table III).

[6] = system: p 21 content in HT 29 Colon Cancer Cells; test: p21 content in HT 29 colon cancer cells; type: cell-based, human; details: HT 29 low-density culture
Experimental: Biliverdin IXα exerts powerful effects on human colon cancer HT 29 cells. Normally, the contents of p21 and p27, known inhibitors of the CDK system, increase as control HT 29 cells become confluent and reach stationary phase. […] In contrast, addition of 4×10^−7 M biliverdin to the incubation medium of the low-density cultures, results in persistence and/or progressive increase in p21 and p27 content starting as early as 16 hs. This effect on p21 induction is dependent on one or both of the propionic acid side chains of biliverdin.

Compound	% Change of TAG [1] [%]	TAG ([1]; control 12.3) [mg/10^6 cells]	increase of triacylglycerol content relative to control ([2]; 3T3-L1 fibroblasts, insulin in the absence of biliverdin) [fold]	% Change of TAG ([2]; Normal Fibroblast, insulin 5 μg/ml, biliverdin 4 × 10^−7 M where present) [%]	TAG ([2]; Normal Fibroblast, insulin 5 μg/ml, biliverdin 4 × 10^−7 M where present, control 9.3) [mg/10^6 cells]	recovery of dorsal axial structures ([3]; 254 or 366 nm UV-irradiated embryos, μM amounts)	recovery of dorsal axis formation ([3]; UV-irradiated embryos, 3.7 μM)	average DAI of control embryos [4]	activity on human colon adenocarcinoma cells (p21/p27, G1, proliferation arrest, differentiation markers) [5]	p21 content in words [6]
Insulin: hormone; differentiates 3T3-L1 fibroblasts into adipocytes	139	17.1	3	304	28.3	–	–	–	–	–
C=CC1=C(C)/C(=C/C2=NC(=C\c3[nH]c(/C=C4\NC(=O)C(C)=C4C=C)c(C)c3CCC(=O)OC)/C(CCC(=O)OC)=C2C)NC1=O.Cl [biliverdin dimethyl ester hydrochloride, reference compound]	–	–	–	–	–	does not induce recovery	no recovery	5	inactive	nearly undetectable
